# According to patent publication US9579299B2, “CNS pharmaceutical compositions and methods of use” (TARGIA PHARMACEUTICALS, priority 2008, dated 2017):
# Read-outs that look alike come from different tables or passages of the source.
# Assays:
# [1] = cited from earlier work
# [2] = antiparkinsonian drugs; cited from earlier work
# [3] = parent drug; cited from earlier work
# [4] = in vivo; cited from earlier work
# treated patients = settings: cited from earlier work; for Psychiatric side-effects: anti-epileptics
# patient = experiment: Example 1: patient with tooth pain, Soma with neuromodulators; format: in vivo, human; settings: Soma with 60 mg Pseudoephedine, 600 mg Guaifenesin 10 min later
# Procedure: A patient had experienced tooth pain. The patient was given the following treatment: at 11:00 a.m.-co-administration of Soma (Carisoprodol) with 60 mg of Pseudoephedine. At 11:10 a.m.-600 mg of Guaifenesin. […] At no time during the treatment did the patient feel somnolent or have any desire to sleep.
# healthy volunteer = experiment: Example 2: volunteer with lower back pain, Soma with neuromodulators; format: in vivo, human
# Procedure: A healthy volunteer was prescribed 250 mg two times a day Soma by their family doctor for reduction of lower back pain. […] The volunteer agreed to take Soma during the day together with the neuromodulation treatment. They took Soma in the morning and afternoon together with Pseudoephedrine followed 15 minutes later by Guaifenisin.
# [5] = cited from earlier work; remark: listed apart in the source
# subject = experiment: Example 4: Flunitrazepam with pseudoephedrine and Mucinex, subject report
# [6] = cited from earlier work; remark: listed apart in the source
# [7] = cited from earlier work; remark: listed apart in the source
# [8] = stated in words (injection / IV)
# [9] = Soma with Pseudoephedrine, Guaifenisin 15 minutes later, two-day regimen
# [10] = oral ingestion 75-100 mg/kg in humans
compound,measurement,setting,value
CN1CCc2cccc3c2[C@H]1Cc1ccc(O)c(O)c1-3 [Apomorphine],Tmax,[1]; [8],"(fast, but injection)"
same,Psychiatric side-effects,[2],"Sedation, psychomotor agitation, anxiety,"
NCC(CC(=O)O)c1ccc(Cl)cc1 (stereo not shown) [Baclofen],Half-life,[1]; in vivo,1.5 to 4 h
same,Tmax,[1]; in vivo,0.5 to 1 h
CN1[C@@H]2CC[C@H]1C[C@@H](OC(c1ccccc1)c1ccccc1)C2 [Benzatropine],Half-life,[1]; in vivo,36 h
same,Tmax,[1]; in vivo,1 to 2 h
same,Psychiatric side-effects,[2],"Sedation, anxiety, psychosis, delirium,"
OC(CCN1CCCCC1)(c1ccccc1)C1CC2C=CC1C2 (stereo not shown) [Biperiden],Half-life,[1]; in vivo,18 to 24 h
same,Tmax,[1]; in vivo,1.5 h
O=C1CN=C(c2ccccn2)c2cc(Br)ccc2N1 [Bromazepam],Elimination Half-Life,[3],10 to 20 h
CC(C)C[C@H]1C(=O)N2CCC[C@H]2[C@]2(O)O[C@](NC(=O)[C@@H]3C=C4c5cccc6[nH]c(Br)c(c56)C[C@H]4N(C)C3)(C(C)C)C(=O)N12 [Bromocriptine],Half-life,[1]; in vivo,7 h
same,Tmax,[1]; in vivo,1 to 2 h
same,Psychiatric side-effects,[2],"Sedation, psychomotor agitation, anxiety,"
C=CCN1C[C@H](C(=O)N(CCCN(C)C)C(=O)NCC)C[C@@H]2c3cccc4[nH]cc(c34)C[C@H]21 [Cabergoline],Half-life,[1]; in vivo,63 to 69 h
same,Tmax,[1]; in vivo,0.5 to 4 h
same,Psychiatric side-effects,[2],"Sedation, psychomotor agitation, anxiety,"
NC(=O)N1c2ccccc2C=Cc2ccccc21 [Carbamazepine],Elimination Half-Life,[4],about 12 hours
same,Psychiatric side-effects,treated patients,"Depression, agitation, sedation, psychosis, cognitive"
CCCC(C)(COC(N)=O)COC(=O)NC(C)C (stereo not shown) [Carisoprodol],Half-life,[1]; in vivo,2.5 h
same,Tmax,[1]; in vivo,1.5 to 2 h
same,sedation or other side-effects reported by patient,patient,without any sedation or other side-effects
same,pain reported by patient,patient; tooth pain,less pain than prior to the procedure
same,sedative side-effect,healthy volunteer; Soma 250 mg two times a day alone,suffered from the sedative side-effect of Soma
same,back pain,healthy volunteer; [9],back pain was effectively reduced
same,sedation reported,healthy volunteer; [9],did not feel sedated
CNC1=Nc2ccc(Cl)cc2C(c2ccccc2)=[N+]([O-])C1 [Chlordiazepoxide],Elimination Half-Life,[3],5 to 30 h
N#CCCN1C(=O)C(O)N=C(c2ccccc2F)c2cc(Cl)ccc21 (stereo not shown) [Cinolazepam],Elimination Half-Life,[3],9 h
CN1C(=O)CC(=O)N(c2ccccc2)c2cc(Cl)ccc21 [Clobazam],Elimination Half-Life,[3],12 to 60 h
O=C1CN=C(c2ccccc2Cl)c2cc([N+](=O)[O-])ccc2N1 [Clonazepam],Tmax,[5]; CNS active agent,4 h
same,bioactivity,[5]; CNS active agent,90%
same,Elimination Half-Life,[3],18 to 50 h
CN1CCN(C2=Nc3cc(Cl)ccc3Nc3ccccc32)CC1 [Clozapine],Tmax,[5]; CNS active agent,2.5 h
CN(C)CCC=C1c2ccccc2C=Cc2ccccc21 [Cyclobenzaprine],Half-life,[1]; in vivo,8 to 37 h
same,Tmax,[1]; in vivo,1 to 2 h
same,Half-life,"[1]; in vivo, listed as Flexeril",24 to 72 h
same,Tmax,"[1]; in vivo, listed as Flexeril",1 h
same,Elimination Half-Life,[4],24 to 72 h
CN1C(=O)CN=C(c2ccccc2)c2cc(Cl)ccc21 [Diazepam],bioactivity,[5]; CNS active agent,97%
Clc1ccc2c(c1)C(c1ccccc1)=NCc1nncn1-2 [Estazolam],Elimination Half-Life,[3],10 to 24 h
Fc1ccc(C(c2ccc(F)cc2)N2CCN(C/C=C/c3ccccc3)CC2)cc1 [Flunarizine],Half-life,[1]; in vivo,456 h
same,Tmax,[1]; in vivo,1 h
CN1C(=O)CN=C(c2ccccc2F)c2cc([N+](=O)[O-])ccc21 [Flunitrazepam],subject-reported effects,"subject; Flunitrazepam 0.5 mg, 15 minutes later pseudoephedrine 60 mg and Mucinex 600 mg",a little “loopy”
same,subject-reported effects,"subject; Flunitrazepam 1.0 mg, at the same time pseudoephedrine 60 mg and Mucinex 600 mg",started to feel tranquilized
"O=C(O)CCCO [GHB, g-Hydroxybutyric acid]",Tmax,[5]; CNS active agent,0.5 to 2 h
same,Tmax,[6]; 25 mg/kg,approximately 30 minutes
same,Tmax,[6]; 50 mg/kg,around 45 minutes
same,peak blood levels,[6]; [10],90 to 100 µg/mL
same,time of peak blood levels after ingestion,[6]; [10],1 to 2 h
same,onset of action,[6]; orally,≤ 15 min
"NCC1(CC(=O)O)CCCCC1 [Gabapentin, 1-(aminomethyl)-cyclohexylacetic acid]",Psychiatric side-effects,treated patients,"Sedation, agitation, fatigue"
CC1=CC(=O)N2CC(=O)N(C)c3ccc(Cl)cc3C2(c2ccccc2)O1 (stereo not shown) [Ketazolam],Elimination Half-Life,[3],2 h
Nc1nnc(-c2cccc(Cl)c2Cl)c(N)n1 [Lamotrigine],Psychiatric side-effects,treated patients,"Sedation, depression, agitation, psychosis"
same,"Psychosis, % of treated patients",treated patients,(0.3% of treated patients)
CC[C@@H](C(N)=O)N1CCCC1=O [Levetiracetam],Psychiatric side-effects,treated patients,"Irritability, sedation and psychosis"
CCN(CC)C(=O)N[C@H]1C=C2c3cccc4[nH]cc(c34)C[C@H]2N(C)C1 [Lisuride],Half-life,[1]; in vivo,2 h
same,Tmax,[1]; in vivo,1.1 to 1.3 h
CN1CCN(/C=C2\N=C3CN=C(c4ccccc4Cl)c4cc([N+](=O)[O-])ccc4N3C2=O)CC1 [Loprazolam],Elimination Half-Life,[3],6 to 12 h
CN1C(=O)C(O)N=C(c2ccccc2Cl)c2cc(Cl)ccc21 (stereo not shown) [Lormetazepam],Elimination Half-Life,[3],10 to 12 h
CN1CCN=C(c2ccccc2)c2cc(Cl)ccc21 [Medazepam],Elimination Half-Life,[3],36 to 200 h
"CCOC(=O)C1(c2ccccc2)CCN(C)CC1 [Meperidine(Pethidine), Meperidine]",Half-life,[1]; in vivo,3 to 5 h
same,Tmax,[1]; oral,"oral, up to 1.5 h"
same,Tmax,[1]; [8],"IV, several min"
Cc1cc(C)cc(OCC2CNC(=O)O2)c1 (stereo not shown) [Metaxalone],Half-life,[1]; in vivo,5 to 12 h
same,Tmax,[1]; in vivo,3 h
same,duration,[7]; in vivo,four to six hours
CCC(=O)C(CC(C)N(C)C)(c1ccccc1)c1ccccc1 (stereo not shown) [Methadone],Tmax,[1]; in vivo,1 to 7.5 h
COc1ccccc1OCC(O)COC(N)=O (stereo not shown) [Methocarbamol],Half-life,[1]; in vivo,1 to 2 h
same,Tmax,[1]; in vivo,1 to 2 h
same,Half-life,"[1]; in vivo, listed as Robaxin",1.14 to 1.24 h
same,Tmax,"[1]; in vivo, listed as Robaxin",0.5 to 1 h
COc1ccc2c(c1)N(C[C@H](C)CN(C)C)c1ccccc1S2 [Methotrimeprazine],Half-life,[1]; in vivo,20 h
same,Tmax,[1]; in vivo,1 to 4 h
COCCc1ccc(OCC(O)CNC(C)C)cc1 (stereo not shown) [Metoprolol],Half-life,[1]; in vivo,3 to 7 h
same,Tmax,[1]; in vivo,(fast) up to 1 h
COc1ccc(OC)c(C(O)CNC(=O)CN)c1 (stereo not shown) [Mitodrin],Tmax,[5]; selected neuromodulators,0.25 to 0.5 h
O=C1CN=C(c2ccccc2)c2cc([N+](=O)[O-])ccc2N1 [Nitrazepam],Elimination Half-Life,[3],15 to 38 h
Cc1cc2c(s1)Nc1ccccc1N=C2N1CCN(C)CC1 [Olanzapine],Tmax,[5]; CNS active agent,5 to 8 h
same,bioactivity,[5]; CNS active agent,40%
Cc1ccccc1C(OCCN(C)C)c1ccccc1 (stereo not shown) [Orphenadrine],Half-life,[1]; in vivo,13 to 20 h
same,Tmax,[1]; in vivo,2 h
"CCC1(c2ccccc2)C(=O)NC(=O)NC1=O [Phenobarbital, 5-ethyl-5-phenyl barbituric acid]",Tmax,[5]; CNS active agent,2 h
CNC[C@H](O)c1cccc(O)c1 [Phenylephrine],Tmax,[5]; selected neuromodulators,0.167 to 0.25 h
same,duration of anti-hypotensive effect,[7]; after a single intravascular injection,approximately 20 minutes
CCCN[C@H]1CCc2nc(N)sc2C1 [Pramipexole],Tmax,[1]; in vivo,1 h
same,Psychiatric side-effects,[2],"Sedation, psychomotor agitation, anxiety,"
CCC1(c2ccccc2)C(=O)NCNC1=O [Primidone],Psychiatric side-effects,treated patients,"Sedation, mood lability, psychotic symptoms, delirium"
CN[C@@H](C)[C@@H](O)c1ccccc1 [Pseudoephedrine],Tmax,[5]; selected neuromodulators,0.5 to 1 h
Fc1ccccc1C1=NCC(=S)N(CC(F)(F)F)c2ccc(Cl)cc21 [Quazepam],Elimination Half-Life,[3],25 to 100 h
CCCN(CCC)CCc1cccc2c1CC(=O)N2 [Ropinirole],Half-life,[1]; in vivo,6 h
same,Tmax,[1]; in vivo,1 to 2 h
same,Psychiatric side-effects,[2],"Sedation, psychomotor agitation, anxiety,"
CCCC(CCC)C(=O)[O-].[Na+] [Sodium valproate],Psychiatric side-effects,treated patients,"Sedation, hallucinations, depressive symptoms, delirium"
CN1C(=O)CN=C(C2=CCCCC2)c2cc(Cl)ccc21 [Tetrazepam],Elimination Half-Life,[3],3 to 26 h
Cc1ccsc1C(=CCCN1CCC[C@@H](C(=O)O)C1)c1sccc1C [Tiagabine],Psychiatric side-effects,treated patients,"Psychosis (0.8% of treated patients), depressive symptoms"
same,"Psychosis, % of treated patients",treated patients,0.8%
"C=CC(N)CCC(=O)O (stereo not shown) [Vigabatrin (GVG), Gamma vinyl GABA]",Tmax,[5]; CNS active agent,0.4 to 1 h
CCCN1C[C@H](CSC)C[C@@H]2c3cccc4[nH]cc(c34)C[C@H]21 [pergolide],Psychiatric side-effects,[2],"Sedation, psychomotor agitation, anxiety,"
